This is an account of results in patent US20200223837A1, “BENZOFURAN AMIDES AND HETEROAROMATIC ANALOGUES THEREOF FOR USE IN THERAPY” (European Molecular Biology Laboratory, priority 2017, published 2020).

Where a name gives a salt, the structure may show the parent alone.

The test system of one experiment is EGR1 promoter. The experiment can be described thus: EGR1 reporter assay (luciferase) in genomically engineered HeLa cell line. The class given is cell-based. As to conditions: Homo sapiens; EGR1 reporter HeLa cells, luciferase activity after 24 hours with compound. The text has this: The compounds of the present invention can be characterized for their effect on expression of egr1 (early growth response protein 1) using an EGR1 reporter cell line.
The HeLa cell line was genetically modified to provide a simple, robust and highly reproducible cell-based assay reporting the activity of an endogenous EGR1 promoter. In brief, a construct encoding EGFP and luciferase proteins, separated by a self-cleaving P2A peptide was inserted, using CRISPR, immediately downstream (3′) to the promoter of endogenous EGR1. Upon treatment with compounds, cells express EGFP and luciferase from EGR1 promoter, which can be readily detected either in live cells using microscopy or cytometry, or through detection of luciferase activity in cell lysates.
To achieve stable genomic integration of an EGR1-promoter dual reporter, two plasmids were generated: one contained the reporter construct (eGFP-P2A-luciferase) flanked by homology arms that direct insertion into genomic DNA, by homologous recombination, of a break in genomic DNA generated by guide RNA targeted cleavage by Cas9 endonuclease. The gRNA expressing plasmid was based on px330 (56), into which a gRNA sequence that targets a break in gDNA close to the start codon of EGR1 was cloned. The left homology arm (encoding part of EGR1 promoter adjacent to its start codon) and right homology arm (encoding […] of start codon of EGR1) were cloned from gDNA using the following primers: […]
The present compounds can be tested, e.g. by using a HeLa cell line carrying an EGR1 reporter construct which allows for expression of luciferase and eGFP (enhanced GFP) controlled by the EGR1 promoter. For this reporter cells are seeded in the wells of a 384 well microtiter plate at a density of 2000 cells per well in 48 μl of DMEM supplemented with 4.5 g/l glucose, 2 mM glutamine and 10% FCS and are incubated for 24 hours at 37° C. with 5% CO2 and 95% humidity. Then, an eleven point 1:3 serial dilution of each test compound, from an initial concentration of 100 μM, is prepared in DMSO and the dilutions are added to the cells in a volume of 2 μl per well. The cells are incubated for a further 24 hours, after which the luciferase activity of each well is determined by addition of 25 μl of luciferase substrate reaction mixture (Britelite™ plus, Perkin Elmer) and measuring the bioluminescence light output (EnVision Xcite plate reader, PerkinElmer).
The compound of example 64 served as a positive control for this EGR1 reporter assay. The compound of example 64 had been identified in an initial high throughput screening campaign.
A general note: Reporter assays use an easily measured gene product as a stand-in for the process of interest.
By EC50 is commonly meant the concentration giving half of the maximal effect. For `COc1ccc2c(CC(=O)N(c3ccc(SC(F)F)cc3)c3nc4ccccc4s3)coc2c1` [Example 77, N-(1,3-Benzothiazol-2-yl)-N-[4-(difluoromethylsulfanyl)phenyl]-2-(6-methoxybenzofuran-3-yl)acetamide], the EC50 is 0.01 to 10 µM. Consider `COc1ccc2c(CC(=O)Nc3nc(-c4ccc5c(c4)OCO5)cs3)coc2c1` [Example 78, N-[4-(1,3-Benzodioxol-5-yl)thiazol-2-yl]-2-(6-methoxybenzofuran-3-yl)acetamide], for which the EC50 lay in the range of 0.01 to 10 µM. As for `COc1ccc2c(CC(=O)Nc3ncc(C)s3)coc2c1C` [Example 79, 2-(6-Methoxy-7-methyl-benzofuran-3-yl)-N-(5-methylthiazol-2-yl)acetamide], the EC50 was in the range of 0.01 to 10 µM. As for `O=C(Cc1coc2cc3c(cc12)CCC3)NCCNc1ncc(CO)s1` [Example 80, 2-(6,7-Dihydro-5H-cyclopenta[f]benzofuran-3-yl)-N-[2-[[5-(hydroxymethyl)thiazol-2-yl]amino]ethyl]acetamide], the EC50 lay within 0.01 to 10 µM. The same measure, in the same setting: under `Cc1cc2occ(CC(=O)N(c3ccc(SC(F)F)cc3)c3nc4ccccc4s3)c2cc1C(C)C` [Example 81, N-(1,3-Benzothiazol-2-yl)-N-[4-(difluoromethylsulfanyl)phenyl]-2-(5-isopropyl-6-methyl-benzofuran-3-yl)acetamide] stands 0.01 to 10 µM; under `Cc1ccc2c(CC(=O)N(c3ccc(SC(F)F)cc3)c3nc4ccccc4s3)coc2c1C` [Example 82, N-(1,3-Benzothiazol-2-yl)-N-[4-(difluoromethylsulfanyl)phenyl]-2-(6,7-dimethylbenzofuran-3-yl)acetamide], 0.01 to 10 µM; under `Cc1ccc2c(CC(=O)Nc3ncc(C(F)(F)F)s3)coc2c1Cl` [Example 83, 2-(7-Chloro-6-methyl-benzofuran-3-yl)-N-[5-(trifluoromethyl)thiazol-2-yl]acetamide], 0.01 to 10 µM. Regarding `CCc1cnc(NC(=O)Cc2coc3cc4c(cc23)CCC4)s1` [Example 84, 2-(6,7-Dihydro-5H-cyclopenta[f]benzofuran-3-yl)-N-(5-ethylthiazol-2-yl)acetamide], the EC50 fell in the range of 0.01 to 10 µM. For `COc1c(C)ccc2c(CC(=O)Nc3ncc(C)s3)coc12` [Example 86, 2-(7-Methoxy-6-methyl-benzofuran-3-yl)-N-(5-methylthiazol-2-yl)acetamide], the EC50 fell in the range of 0.01 to 10 µM. Regarding `COCc1cnc(NC(=O)Cc2coc3c(C)c(C)ccc23)s1` [Example 87, 2-(6,7-Dimethylbenzofuran-3-yl)-N-[5-(methoxymethyl)thiazol-2-yl]acetamide], the EC50 fell in the range of 0.01 to 10 µM. Regarding `Cc1cnc(NC(=O)Cc2coc3c(C)c(C)ccc23)s1` [Example 88, 2-(6,7-Dimethylbenzofuran-3-yl)-N-(5-methylthiazol-2-yl)acetamide], the 50% effective concentration (EC50) lay within 0.01 to 10 µM. For the molecule `COCc1cnc(NC(=O)Cc2coc3c(Cl)c(C)ccc23)s1` [Example 89, 2-(7-Chloro-6-methyl-benzofuran-3-yl)-N-[5-(methoxymethyl)thiazol-2-yl]acetamide], the EC50 is 0.01 to 10 µM.

For the molecule `Cc1cnc(NC(=O)Cc2coc3c(Cl)c(C)ccc23)s1` [Example 90, 2-(7-Chloro-6-methyl-benzofuran-3-yl)-N-(5-methylthiazol-2-yl)acetamide], the concentration for a half-maximal effect (EC50) lay within 0.01 to 10 µM. Take `COc1ccc2c(CC(=O)Nc3ncc(C(F)(F)F)s3)coc2c1C` [Example 91, 2-(6-Methoxy-7-methyl-benzofuran-3-yl)-N-[5-(trifluoromethyl)thiazol-2-yl]acetamide]: the concentration giving a half-maximal response (EC50) fell in the range of 0.01 to 10 µM. For `Cc1cnc(NC(=O)Cc2coc3c(C)c(Cl)ccc23)s1` [Example 92, 2-(6-Chloro-7-methyl-benzofuran-3-yl)-N-(5-methylthiazol-2-yl)acetamide], the EC50 was 0.01 to 10 µM. Regarding `COCc1cnc(NC(=O)Cc2coc3c(Cl)c(Cl)ccc23)s1` [Example 93, 2-(6,7-Dichlorobenzofuran-3-yl)-N-[5-(methoxymethyl)thiazol-2-yl]acetamide], the EC50 was 0.01 to 10 µM. For the molecule `Cc1c(Cl)ccc2c(CC(=O)Nc3ncc(C(F)(F)F)s3)coc12` [Example 94, 2-(6-Chloro-7-methyl-benzofuran-3-yl)-N-[5-(trifluoromethyl)thiazol-2-yl]acetamide], the EC50 lay in the range of 0.01 to 10 µM. On the same count and under the same terms, then `Cc1ccc2c(CC(=O)Nc3ncc(C(C)C)s3)coc2c1C` [Example 95, 2-(6,7-Dimethylbenzofuran-3-yl)-N-(5-isopropylthiazol-2-yl)acetamide], with 0.01 to 10 µM. Consider `COc1c(C)ccc2c(CC(=O)Nc3ncc(C(F)(F)F)s3)coc12` [Example 97, 2-(7-Methoxy-6-methyl-benzofuran-3-yl)-N-[5-(trifluoromethyl)thiazol-2-yl]acetamide], for which the EC50 is 0.01 to 10 µM. With `CCc1cnc(NC(=O)Cc2coc3c(C)c(C)ccc23)s1` [Example 98, 2-(6,7-Dimethylbenzofuran-3-yl)-N-(5-ethylthiazol-2-yl)acetamide], the concentration giving a half-maximal response (EC50) was 0.01 to 10 µM. Regarding `Cc1ccc2c(CC(=O)Nc3ncc(C(F)(F)F)s3)coc2c1C` [Example 99, 2-(6,7-Dimethylbenzofuran-3-yl)-N-[5-(trifluoromethyl)thiazol-2-yl]acetamide], the EC50 lay in the range of 0.01 to 10 µM. For the molecule `NCc1ccc(-c2csc(NC(=O)Cc3coc4cc5c(cc34)CCC5)n2)o1` [Example 100, hydrochloride salt], the EC50 was in the range of 0.01 to 10 µM.

For `Cc1cc2occ(CC(=O)Nc3nc(-c4ccc(CN)cc4)cs3)c2cc1C` [Example 101, N-[4-[4-(Aminomethyl)phenyl]thiazol-2-yl]-2-(5,6-dimethylbenzofuran-3-yl)acetamide, hydrochloride salt], the EC50 was in the range of 0.01 to 10 µM. For the molecule `Cc1ccc2c(CC(=O)N(c3ccc(SC(F)F)cc3)c3nc4ccccc4s3)coc2c1` [Example 102, N-(1,3-Benzothiazol-2-yl)-N-[4-(difluoromethylsulfanyl)phenyl]-2-(6-methylbenzofuran-3-yl)acetamide], the concentration giving a half-maximal response (EC50) was in the range of 0.01 to 10 µM. `CNC(=O)c1nc(NC(=O)Cc2coc3c(C)c(C)ccc23)sc1C(F)(F)F` [Example 103, 2-(2-(6,7-dimethylbenzofuran-3-yl)acetamido)-N-methyl-5-(trifluoromethyl)thiazole-4-carboxamide]: the EC50 is 10 to 100 µM. As for `Cc1cnc(NC(=O)Cc2coc3ncccc23)s1` [Example 104, 2-(Furo[2,3-b]pyridin-3-yl)-N-(5-methylthiazol-2-yl)acetamide], the EC50 lay within 10 to 100 µM. Regarding `O=C(Cc1coc2ncccc12)Nc1ncc(C(F)(F)F)s1` [Example 106, 2-(Furo[2,3-b]pyridin-3-yl)-N-(5-(trifluoromethyl)thiazol-2-yl)acetamide], the concentration for a half-maximal effect (EC50) is 0.01 to 10 µM.

A further experiment concerns the target T1, pirin (Homo sapiens, UniProt O00625).
T1 sequence (O00625 1-290): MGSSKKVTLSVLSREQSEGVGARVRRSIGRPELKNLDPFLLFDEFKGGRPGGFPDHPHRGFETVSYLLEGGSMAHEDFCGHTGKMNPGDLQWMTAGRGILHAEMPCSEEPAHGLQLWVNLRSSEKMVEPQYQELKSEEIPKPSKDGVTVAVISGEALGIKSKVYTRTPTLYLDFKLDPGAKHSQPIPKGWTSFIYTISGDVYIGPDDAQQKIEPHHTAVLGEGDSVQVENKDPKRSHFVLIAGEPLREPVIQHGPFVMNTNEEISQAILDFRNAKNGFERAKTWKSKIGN
The experiment can be described thus: Nano differential scanning fluorimetry (NanoDSF), thermal melting of pirin. To be noted: 10 μM pirin in PBS, 20 μM test compound. (In general: Differential scanning fluorimetry follows unfolding on heating by fluorescence.)
Description: NanoDSF is an advanced Differential Scanning Fluorimetry method for measuring protein stability using intrinsic tryptophan or tyrosine fluorescence. The fluorescence of the tryptophans and tyrosines in a protein is strongly dependent on their close surroundings. Changes in protein structure typically affect both the intensity and the emission wavelength especially of tryptophan fluorescence. By measuring fluorescence intensity at 330 nm and 350 nm, the change in fluorescence intensity and the shift of the fluorescence maximum upon unfolding can be used to detect thermal melting of the protein. Proteins are stabilized when associated with ligands and show a shift in their melting temperatures. NanoDSF has the advantages of being label free and observing the protein in solution.
A 10 μM solution of pirin in phosphate buffered saline, with or without 20 μM test compound, is subject to thermal denaturation under fluorescence monitoring using a Prometheus NT.48 instrument of NanoTemper Technologies. Unliganded pirin has a complex biphasic melting curve. […] If the test compound is a ligand to pirin, it adopts a single thermal transition some 10° C. above that of apopirin.
As to `Cc1cc2occ(CC(=O)Nc3nc(-c4ccc(CN)cc4)cs3)c2cc1C` [Example 101, N-[4-[4-(Aminomethyl)phenyl]thiazol-2-yl]-2-(5,6-dimethylbenzofuran-3-yl)acetamide, hydrochloride salt], the “increase in the Tm of melting” value was “approximately 11 °C”.
